In PubChem BioAssay AID2060506 (Molecular Pharmacology Branch, DTP, NCI, 2025):

System: 598228-144-R-J1-PDC complex spheroid viability
Assay: Anticancer human tumor 598228-144-R-J1-PDC patient-derived serous endometrial adenocarcinoma cell line growth inhibition [GQUAD]
Settings: for IC50: curve of first compound; for viability, T/C: stronger effect = lower value
Method in brief: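 Multi-cell-type spheroids of tumor cells with HUVEC and mesenchymal stem cells, treated with drug combinations. Concentrations descend in half-log steps from near clinical Cmax, or from 10 microM where Cmax is unknown; viability read-out.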

[1] = second compound 0.0316 µM, first compound 0.0316 µM
[2] = second compound 0.0316 µM, first compound 0.1 µM
[3] = second compound 0.0316 µM, first compound 0.316 µM
[4] = second compound 0.0316 µM, first compound 1 µM
[5] = second compound 0.0316 µM, first compound 3.16 µM
[6] = second compound 0.0316 µM, first compound 10 µM
[7] = second compound 0.1 µM, first compound 0.0316 µM
[8] = second compound 0.1 µM, first compound 0.1 µM
[9] = second compound 0.1 µM, first compound 0.316 µM
[10] = second compound 0.1 µM, first compound 1 µM
[11] = second compound 0.1 µM, first compound 3.16 µM
[12] = second compound 0.1 µM, first compound 10 µM
[13] = second compound 0.316 µM, first compound 0.0316 µM
[14] = second compound 0.316 µM, first compound 0.1 µM
[15] = second compound 0.316 µM, first compound 0.316 µM
[16] = second compound 0.316 µM, first compound 1 µM
[17] = second compound 0.316 µM, first compound 3.16 µM
[18] = second compound 0.316 µM, first compound 10 µM
[19] = second compound 1 µM, first compound 0.0316 µM
[20] = second compound 1 µM, first compound 0.1 µM
[21] = second compound 1 µM, first compound 0.316 µM
[22] = second compound 1 µM, first compound 1 µM
[23] = second compound 1 µM, first compound 3.16 µM
[24] = second compound 1 µM, first compound 10 µM
[25] = second compound 3.16 µM, first compound 0.0316 µM
[26] = second compound 3.16 µM, first compound 0.1 µM
[27] = second compound 3.16 µM, first compound 0.316 µM
[28] = second compound 3.16 µM, first compound 1 µM
[29] = second compound 3.16 µM, first compound 3.16 µM
[30] = second compound 3.16 µM, first compound 10 µM
[31] = second compound 10 µM, first compound 0.0316 µM
[32] = second compound 10 µM, first compound 0.1 µM
[33] = second compound 10 µM, first compound 0.316 µM
[34] = second compound 10 µM, first compound 1 µM
[35] = second compound 10 µM, first compound 3.16 µM
[36] = second compound 10 µM, first compound 10 µM
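Further: spheroids exposed to the agents for one week before reading.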
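Wherever viability, T/C is given: percent of vehicle DMSO control viability so 100% = untreated growth.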

COc1ncnc(C2CC2)c1-c1ncc2cnn(Cc3ccc(-c4nc(C(F)(F)F)cn4C(C)C)cc3)c2n1 + CN(C)c1ccc(Nc2c3ccc(NC(=O)CCN4CCCC4)cc3nc3cc(NC(=O)CCN4CCCC4)ccc23)cc1
IC50 (second compound 0.0316 µM): > 10000 nM | IC50 (second compound 0.1 µM): > 10000 nM | IC50 (second compound 0.316 µM): > 10000 nM | IC50 (second compound 1 µM): > 10000 nM | IC50 (second compound 3.16 µM): > 10000 nM | IC50 (second compound 10 µM): > 10000 nM | viability, T/C [1]: 91.3% | viability, T/C [2]: 111% | viability, T/C [3]: 95.9% | viability, T/C [4]: 92.2% | viability, T/C [5]: 111% | viability, T/C [6]: 89.9% | viability, T/C [7]: 105% | viability, T/C [8]: 97.9% | viability, T/C [9]: 101% | viability, T/C [10]: 85.5% | viability, T/C [11]: 102% | viability, T/C [12]: 110% | viability, T/C [13]: 112% | viability, T/C [14]: 115% | viability, T/C [15]: 99% | viability, T/C [16]: 88.7% | viability, T/C [17]: 120% | viability, T/C [18]: 110% | viability, T/C [19]: 112% | viability, T/C [20]: 90.6% | viability, T/C [21]: 102% | viability, T/C [22]: 75.1% | viability, T/C [23]: 95.2% | viability, T/C [24]: 90.5% | viability, T/C [25]: 89.8% | viability, T/C [26]: 108% | viability, T/C [27]: 94.3% | viability, T/C [28]: 105% | viability, T/C [29]: 90.9% | viability, T/C [30]: 91.5% | viability, T/C [31]: 84% | viability, T/C [32]: 67.8% | viability, T/C [33]: 72.2% | viability, T/C [34]: 77.1% | viability, T/C [35]: 71.1% | viability, T/C [36]: 51.5%

COc1ccc([C@@H](O)c2cc(-c3ncnc4cc(N5CCOCC5)ccc34)c(F)cc2Cl)nn1 + Cc1[nH]c2ccc(F)cc2c1-c1nc2c3cccnc3c3ncccc3c2[nH]1
IC50 (second compound 0.0316 µM): 3140 nM | IC50 (second compound 0.1 µM): 1220 nM | IC50 (second compound 0.316 µM): 1290 nM | IC50 (second compound 1 µM): 222 nM | IC50 (second compound 3.16 µM): < 31.6 nM | IC50 (second compound 10 µM): 112 nM | viability, T/C [1]: 96.8% | viability, T/C [2]: 114% | viability, T/C [3]: 87.8% | viability, T/C [4]: 76.7% | viability, T/C [5]: 50.4% | viability, T/C [6]: 29.1% | viability, T/C [7]: 112% | viability, T/C [8]: 96% | viability, T/C [9]: 62.6% | viability, T/C [10]: 59.5% | viability, T/C [11]: 35% | viability, T/C [12]: 26% | viability, T/C [13]: 82.2% | viability, T/C [14]: 71.5% | viability, T/C [15]: 72.8% | viability, T/C [16]: 50.5% | viability, T/C [17]: 40.8% | viability, T/C [18]: 32.4% | viability, T/C [19]: 64.2% | viability, T/C [20]: 67.4% | viability, T/C [21]: 37.4% | viability, T/C [22]: 36.9% | viability, T/C [23]: 27.4% | viability, T/C [24]: 18.8% | viability, T/C [25]: 48.3% | viability, T/C [26]: 44.9% | viability, T/C [27]: 34.1% | viability, T/C [28]: 21.1% | viability, T/C [29]: 18.9% | viability, T/C [30]: 15.2% | viability, T/C [31]: 61.5% | viability, T/C [32]: 49.6% | viability, T/C [33]: 43.9% | viability, T/C [34]: 31.1% | viability, T/C [35]: 25.6% | viability, T/C [36]: 22.5%
